Values joined by “and” are separate entries in the source; they are usually repeats but may differ in a detail not shown here. Equal entries are not always repeated.
Assays:
Type in all cases: cell-based, mouse
[1] = tested on: J1 mES cells; test: Fraction of MF-20 positive cells (cardiomyocytes) by flow cytometry, alternate differentiation protocol
Description: (§1) • Undifferentiated ES cell culture. J1 and R1 ES cells were obtained from ATCC (SCRC 1010, SCRC 1036, Manassaas, Va.), expanded on Mitomycin-C treated MEF cells, and frozen into vials following ATCC protocols. Vials were thawed into undifferentiated ES cell maintenance medium (described in Table 1) containing supplemental leukaemia inhibitory factor (LIF) and plated at a density of about 5×10^4 cell/cm^2 on 25 cm^2 cell culture flasks (353109, Becton Dickinson, Franklin Lakes, N.J.) that were treated for 30 min with a sterile 0.1% (w/v) solution of gelatine (G-2500, Sigma-Aldrich, St. Louis, Mo.) in tissue culture water (WFI, 25-055-CM, Mediatech, Herndon, Va.). Medium (Table 1) was exchanged daily, and cells were detached with 0.25% trypsin (30-2101, ATCC) every two days. Split fractions were chosen so that cells were plated at approximately 1.2^[…] cells/cm^2. Cells were used for differentiation experiments 4-6 days after thawing the cell vials. • EB formation. […] The concentration of cells with intact membranes was determined using trypan blue cell counts, and cells were diluted to a concentration of 2.5×10^4 membrane-intact cells/ml. […] of this cell suspension were aliquoted onto the inside surface of the lids of 10×10 cm Petri dishes (351112, Becton Dickinson) using an 8-channel pipette. The lids were inverted and placed onto the bottoms of the dishes, which were filled with 15 ml of a pre-warmed (37° C.) solution containing 75% (v/v) Dulbecco's phosphate buffered saline (DPBS, 21-030-CM, Mediatech), 25% water, and 0.002% (w/v) gelatine. • EB transfer. […], the resulting EBs were manually pipetted off of the Petri dish lid using wide-orifice pipette tips (3532, Molecular BioProducts, San Diego, Calif.) and placed into the wells of custom-made 24-well culture dish, which had the plastic bottom replaced with fibronectin-coated silicone rubber membrane. 30 EBs were placed into each well, and the medium was mixed by pipetting to distribute the EBs uniformly across the plate bottom. • Culture of attached EBs. The EBs attached and spread within one day of transfer to the silicone rubber membrane-based dish. The medium was removed from all of the wells 2 days after EB transfer and was replaced with 1 ml of fresh ES cell differentiation medium. On the following day, the medium was removed and replaced with 1 ml serum-free differentiation medium (Table 2). Medium continued to be exchanged daily with the serum-free differentiation medium until the end of the experiment. • Cell collection for nuclei counting and flow cytometry. […]

[2] = tested on: R1 ES cells; test: as above; conditions: With 0.2 mM ascorbic acid
Description: as §1

[3] = tested on: mES cells; test: Cardiomyocyte generation with 0 or 0.2 mM ascorbic acid, MF-20 immunostaining counted by flow cytometer; conditions: 10 days
Experimental: Low Oxygen and Ascorbic Acid Act Synergistically to Promote Cardiomyocyte Generation. mES cells were differentiated for 10 days at 142, 36, and 7 mmHg pO2 and with either 0 or 0.2 mM ascorbic acid. Cardiomyocyte generation was measured by counting fixed cells immunostained for sacromeric myosin heavy chain using the MF-20 with a flow cytometer. […] (FIGS. 10 and 11.).

[4] = tested on: mES cells; test: Adhesion of mES cells to polystyrene and silicone rubber, native or with adsorbed gelatin or fibronectin; conditions: after a day in culture
Experimental: FIG. 23. Adhesion of ES cells to polystyrene and silicone rubber. Adhesion of mES cells to polystyrene and silicone rubber in their native states or with 0.1% gelatin in water or […] fibronectin in PBS adsorbed onto the surface for 24 hr prior to cell addition. Below each pair of micrographs is quantitative data for the total, attached, and suspension cell numbers. Results shown are mean±SD for three wells in a 24 well plate seeded with 2×10^5 cell 26 hr prior to performing the cell counts.
PSS solution (polyanion) was added to an untreated plate and incubated for 1 hr, followed by a 10 min wash with DPBS, a 1 hr incubation with PEI (polycation), and a 10 min wash with DPBS. Two additional incubations with both PSS and PEI (30 min each) with intervening washes (10 min) were done to build a (PSS-PEI)3 PEM. To this PEM an additional 3 layers each of type B gelatin (polyanion) and PDL (polycation) were formed, using 30 min incubations with the polyelectrolyte solution, and 10 min washes with DPBS. The final PEM structure was thus (PSS-PEI)3-(type B gelatin—PDL)3. […] Attached nuclei were counted by adding 0.5 ml of lysis solution to the well and incubating for 10 min. […] The membrane-intact cell concentration was determined using trypan blue cell counts, and cells were diluted to a concentration of 25,000 membrane intact cells/ml. […]

`O=C1O[C@H]([C@@H](O)CO)C(O)=C1O` [Ascorbic Acid, L-ascorbic acid] was tested, and the “Fraction of MF-20 positive cells” value ([1]; With 0.2 mM ascorbic acid, pO2gas 36, J1, 4 days hanging drop EBs then 7 days serum free ITS medium) was 18 and 25 and 16, the “Change in fraction of cardiomyocytes when ascorbic acid was included in the culture medium” value ([1]; all of the oxygen conditions tested, P=0.0005, J1 and R1 experiments of Table 4) was “highly significant increase” and the “Fraction of MF-20 positive cells” value ([2]; pO2gas 7, 4 days hanging drop EBs then 7 days serum free ITS medium) was 4. For the same molecule, the “Fraction of MF-20 positive cells” value ([2]; pO2gas 36, 4 days hanging drop EBs then 7 days serum free ITS medium) was 22, the “Effect on cardiomyocyte generation in combination with low pO2” value ([3]; 0.2 mM combined with 36 mmHg pO2) was “a larger increase in cardiomyocytes than with either method alone” and the “Effect on cardiomyocyte generation” value ([3]; 0.2 mM vs 0 mM, at all pO2 (142, 36, 7 mmHg)) was “increased cardiomyocyte generation”.
In the case of “fibronectin: protein adsorbed onto silicone rubber to promote cell adhesion (F1141, Sigma-Aldrich)”, the “Fraction of cells attached” value [4] is reported as 99%.

Source: patent US9029147B2, “Methods and compositions for enhanced differentiation from embryonic stem cells” (Massachusetts Institute of Technology, priority 2007, dated 2015)
